Source: ChEMBL document CHEMBL5241106, “Discovery of a Dual Tubulin and Poly(ADP-Ribose) Polymerase-1 Inhibitor by Structure-Based Pharmacophore Modeling, Virtual Screening, Molecular Docking, and Biological Evaluation” (J Med Chem, 2021)
Active and inactive are the calls of the source. The rule behind the calls is not given here.

Legend:
Tubulin (Homo sapiens) = Tubulin (Homo sapiens) (UniProt P68371+Q9H4B7+P0DPH7+P68366+Q13509+Q71U36+P04350+Q3ZCM7+P07437+P68363+Q9BQE3+Q6PEY2+Q13885+Q9BVA1+Q9BUF5); test: Inhibition of tubulin polymerization (unknown origin) at 10 uM by turbidimetric analysis; assay type: protein-complex assay
Tubulin = test: Inhibition of tubulin polymerization (unknown origin) by turbidimetric analysis; assay type: protein-complex assay, Homo sapiens
[1] = target: Poly [ADP-ribose] polymerase 1 (Homo sapiens, UniProt P09874); test: Inhibition of PARP1 (unknown origin) using [3H]NAD+ as substrate incubated for 15 mins by scintillation counting analysis
MDA-MB-231 [2] = test: Cytotoxicity against human MDA-MB-231 cells assessed as inhibition of cell growth incubated for 72 hrs by MTT assay; assay type: functional, cell-based
[3] = Cytotoxicity against human MCF-10A cells assessed as inhibition of cell growth incubated for 72 hrs by MTT assay; assay type: toxicity, cell-based
MDA-MB-231 [4] = test: Induction of apoptosis in human MDA-MB-231 cells incubated for 24 hrs by DAPI staining based confocal laser microscopy; assay type: functional, cell-based
MDA-MB-231 [5] = test: Induction of apoptosis in human MDA-MB-231 cells assessed as viable cells at 2.5 uM incubated for 48 hrs by Annexin V-FITC/PI staining based flow cytometry (reference value: 91.4%); assay type: functional; settings: read-out: Activity
MDA-MB-231 [6] = test: Induction of apoptosis in human MDA-MB-231 cells assessed as early apoptotic cells at 2.5 uM incubated for 48 hrs by Annexin V-FITC/PI staining based flow cytometry (reference value: 1.71%); assay type: functional
MDA-MB-231 [7] = test: Induction of apoptosis in human MDA-MB-231 cells assessed as late apoptotic cells at 2.5 uM incubated for 48 hrs by Annexin V-FITC/PI staining based flow cytometry (reference value: 5.06%); assay type: functional
MDA-MB-231 [8] = test: Induction of apoptosis in human MDA-MB-231 cells assessed as necrotic cells at 2.5 uM incubated for 48 hrs by Annexin V-FITC/PI staining based flow cytometry (reference value: 1.86%); assay type: functional

Sequence of Poly [ADP-ribose] polymerase 1 (P09874 whole entry): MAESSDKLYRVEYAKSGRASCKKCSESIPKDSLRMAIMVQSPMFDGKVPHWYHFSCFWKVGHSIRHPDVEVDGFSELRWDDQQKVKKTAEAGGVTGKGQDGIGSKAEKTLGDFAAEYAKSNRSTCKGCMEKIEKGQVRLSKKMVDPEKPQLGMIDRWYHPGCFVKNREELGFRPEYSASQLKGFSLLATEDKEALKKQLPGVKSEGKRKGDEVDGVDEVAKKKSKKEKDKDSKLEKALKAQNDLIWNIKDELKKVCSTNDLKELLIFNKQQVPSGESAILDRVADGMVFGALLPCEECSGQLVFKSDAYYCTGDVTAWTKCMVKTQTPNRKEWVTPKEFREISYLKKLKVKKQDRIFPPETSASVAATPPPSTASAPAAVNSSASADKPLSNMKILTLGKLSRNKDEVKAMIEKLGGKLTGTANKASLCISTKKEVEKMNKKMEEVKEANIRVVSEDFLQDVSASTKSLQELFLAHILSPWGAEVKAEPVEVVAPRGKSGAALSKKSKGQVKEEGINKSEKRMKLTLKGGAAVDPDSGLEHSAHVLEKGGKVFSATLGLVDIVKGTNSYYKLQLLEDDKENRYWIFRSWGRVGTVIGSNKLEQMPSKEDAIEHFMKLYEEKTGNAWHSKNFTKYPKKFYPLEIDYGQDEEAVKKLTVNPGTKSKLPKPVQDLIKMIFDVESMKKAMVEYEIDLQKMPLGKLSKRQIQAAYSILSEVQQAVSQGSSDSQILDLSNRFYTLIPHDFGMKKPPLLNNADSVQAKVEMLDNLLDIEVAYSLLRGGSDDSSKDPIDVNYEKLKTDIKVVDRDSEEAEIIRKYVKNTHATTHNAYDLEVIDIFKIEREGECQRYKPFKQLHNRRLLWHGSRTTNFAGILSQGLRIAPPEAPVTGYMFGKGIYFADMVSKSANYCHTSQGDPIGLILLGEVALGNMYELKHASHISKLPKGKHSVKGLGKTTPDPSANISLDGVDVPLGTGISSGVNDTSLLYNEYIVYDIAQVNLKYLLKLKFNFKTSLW

Structure (SMILES) | inhibition (Tubulin (Homo sapiens)) [%] | other results
O=c1[nH]c(/C=C/c2ccccc2)nc2ccccc12 | 82 | 
Cc1ccc(-c2nc3ccccc3c(=O)[nH]2)cc1 | 45 | 
COc1ccc(-c2nc3ccccc3c(=O)[nH]2)cc1C | 49 | 
CN(C)C(=O)Cc1ccc2[nH]c(=O)c3ccccc3c2c1 |  | IC50 (Tubulin): Not Active
O=c1[nH]c(/C=C/c2cccc([N+](=O)[O-])c2)nc2ccccc12 | 65 | 
O=c1[nH]c(/C=C/c2cc(Br)ccc2O)nc2ccccc12 | 63 | 
COc1cc2c(c(OC)c1OC)-c1ccc(OC)c(=O)cc1[C@@H](NC(C)=O)CC2 [COLCHICINE] |  | IC50 [1]: Not Active; Activity (MDA-MB-231 [2]): Active; IC50 at 72 h [3]: 6 nM; Activity (MDA-MB-231 [4]): Active; viability at 2.5 µM (MDA-MB-231 [5]): 88%; Activity (MDA-MB-231 [6]): 1.89%; Activity (MDA-MB-231 [7]): 8.1%; Activity (MDA-MB-231 [8]): 2.04%
COc1ccc(-c2nc(O)c3ccccc3n2)cc1 | 47 | 
O=c1[nH]c(/C=C/c2ccc([N+](=O)[O-])cc2)nc2ccccc12 | 61 | 
Cc1cccc(-c2nc(O)c3ccccc3n2)c1 | 43 | 
COc1cc(/C=C/c2nc(O)c3ccccc3n2)ccc1O | 69 | 
